Reference: US6987114B1, “Antiviral pyrimidinedione derivatives and process for the preparation thereof” (Samjin Pharmaceutical Co., Ltd, priority 1999, dated 2006)
In brackets after ≈: the same amount, converted by molar mass. Read-outs that look alike come from different tables or passages of the source.

Experiments:
mock-infected MT-4 cells = assay: Cytotoxicity based on viability of mock-infected host cells (MTT method); type: cell-based; conditions: mock-infected MT-4 cells, MTT method, 4 or 5 days at 37° C.
How it was run: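 Mock-infected MT-4 cells at 2.5×10^5 cells/ml were exposed to various concentrations of test compound, run in parallel with HIV-infected (1000 CCID50) cultures. After 4 or 5 days at 37° C., host-cell viability was read by MTT.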

HIV = assay: microbe, parasite or virus in culture; type: cell-based
How it was run: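 MT-4 cells (2.5×10^5 cells/ml) infected with 1000 CCID50 HIV, added at once to compound dilutions, incubated 4 or 5 days at 37° C. Protection from virus-induced cytopathic effect read by MTT; cytotoxicity from MTT viability of mock-infected cells in parallel.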

[1] = Human immunodeficiency virus 1, MT4, read-out: ED50
[2] = Human immunodeficiency virus 1, MT4, HIV-infected MT-4 cells, MTT method, 4 or 5 days at 37° C., read-out: ED50 (the source's name)

Compound	melting point	EC50 (HIV; [2])	CD50 (mock-infected MT-4 cells)	EC50 (HIV; [1])
Cc1cc(C)cc(Cn2c(Oc3cc(C)cc(C)c3)c(C(C)C)c(=O)[nH]c2=O)c1 [Example 52, 1-(3,5-Dimethylbenzyl)-5-isopropyl-6-(3,5-dimethyl-phenoxy)-2,4-pyrimidinedione]	175 to 177 °C	–	8.20 µg/mL	0.098 µg/mL (≈ 0.25 µM)
CCC(=O)Cn1c(Oc2cc(C)cc(C)c2)c(CC)c(=O)[nH]c1=O [Example 161, 1-(2-Butanon-1-yl)-5-ethyl-6-(3,5-dimethylphenoxy)-2,4-pyrimidinedione]	116 to 118 °C	–	48.0 µg/mL	0.018 µg/mL (≈ 0.0545 µM)
Cc1cc(C)cc(Oc2c(C(C)C)c(=O)[nH]c(=O)n2Cc2cc(F)cc(F)c2)c1 [Example 76, 1-(3,5-Difluorobenzyl)-5-isopropyl-6-(3,5-dimethylphenoxy)-2,4-pyrimidinedione]	186 to 189 °C	0.022 µg/mL (≈ 0.0549 µM)	12.10 µg/mL	–
Cc1cc(C)cc(C(=O)c2c(C(C)C)c(=O)[nH]c(=O)n2Cc2cccc(C#N)c2)c1 [Example 48, 1-(3-Cyanobenzyl)-5-isopropyl-6-(3,5-dimethylbenzoyl)-2,4-pyrimidinedione]	202 to 204 °C	–	8.07 µg/mL	0.003 µg/mL (≈ 0.00747 µM)
CCc1c(Sc2cc(C)cc(C)c2)n(Cc2cccc(C#N)c2)c(=O)[nH]c1=O [Example 43, 1-(3-Cyanobenzyl)-5-ethyl-6-(3,5-dimethylphenyl)thio-2,4-pyrimidinedione]	179 to 181 °C	–	1.77 µg/mL	0.015 µg/mL (≈ 0.0383 µM)
CCc1c(Sc2cc(C)cc(C)c2)n(CC2CC2)c(=O)[nH]c1=O [Example 1, 1-(Cyclopropyl)methyl-5-ethyl-6-(3,5-dimethylphenyl)thio-2,4-pyrimidinedione]	161 to 163 °C	0.0027 µg/mL (≈ 0.00817 µM)	4.75 µg/mL	–
CCc1c(Oc2cc(C)cc(C)c2)n(Cc2cc(F)ccc2F)c(=O)[nH]c1=O [Example 69, 1-(2,5-Difluorobenzyl)-5-ethyl-6-(3,5-dimethylphenoxy)-2,4-pyrimidinedione]	231 to 233 °C	0.034 µg/mL (≈ 0.088 µM)	>100.00 µg/mL	–
Cc1cc(C)cc(C(=O)c2c(C(C)C)c(=O)[nH]c(=O)n2Cc2c3ccccc3cc3ccccc23)c1 [Example 102, 1-(Anthracen-9-ylmethyl)-5-isopropyl-6-(3,5-dimethyl-benzoyl)-2,4-pyrimidinedione]	273 to 275 °C	–	4.44 µg/mL	> 4.44 µg/mL
CCc1c(Sc2cc(C)cc(C)c2)n(Cc2cc(Cl)cc(Cl)c2)c(=O)[nH]c1=O [Example 79, 1-(3,5-Dichlorobenzyl)-5-ethyl-6-(3,5-dimethylphenyl)thio-2,4-pyrimidinedione]	180 to 182 °C	–	24.77 µg/mL	0.052 µg/mL (≈ 0.119 µM)
CCc1c(Sc2cc(C)cc(C)c2)n(Cc2cc(C)cc(C)c2)c(=O)[nH]c1=O [Example 49, 1-(3,5-Dimethylbenzyl)-5-ethyl-6-(3,5-dimethylphenyl)thio-2,4-pyrimidinedione]	180 to 182 °C	–	7.48 µg/mL	0.014 µg/mL (≈ 0.0355 µM)
CCc1c(C(=O)c2cc(C)cc(C)c2)n(Cc2nc3ccccc3o2)c(=O)[nH]c1=O [Example 149, 1-(Benzoxazol-2-ylmethyl)-5-ethyl-6-(3,5-dimethyl-benzoyl)-2,4-pyrimidinedione]	218 to 220 °C	–	6.78 µg/mL	0.029 µg/mL (≈ 0.0719 µM)
CCc1c(Oc2cc(C)cc(C)c2)n(Cc2cccc(OC)c2)c(=O)[nH]c1=O [Example 27, 1-(3-Methoxybenzyl)-5-ethyl-6-(3,5-dimethylphenoxy)-2,4-pyrimidinedione]	133 to 135 °C	0.014 µg/mL (≈ 0.0368 µM)	10.68 µg/mL	–
CCc1c(Sc2cc(C)cc(C)c2)n(Cc2cc(Br)cc(Br)c2)c(=O)[nH]c1=O [Example 85, 1-(3,5-Dibromobenzyl)-5-ethyl-6-(3,5-dimethylphenyl)thio-2,4-pyrimidinedione]	214 to 215 °C	–	13.17 µg/mL	0.13 µg/mL (≈ 0.248 µM)
CCc1c(C(=O)c2cc(C)cc(C)c2)n(Cc2cccc(C#N)c2)c(=O)[nH]c1=O [Example 47, 1-(3-Cyanobenzyl)-5-ethyl-6-(3,5-dimethylbenzoyl)-2,4-pyrimidinedione]	206 to 207 °C	–	2.53 µg/mL	0.003 µg/mL (≈ 0.00774 µM)
Cc1cc(C)cc(C(=O)c2c(C(C)C)c(=O)[nH]c(=O)n2Cc2cc(F)cc(F)c2)c1 [Example 78, 1-(3,5-Difluorobenzyl)-5-isopropyl-6-(3,5-dimethylbenzoyl)-2,4-pyrimidinedione]	207 to 209 °C	0.0033 µg/mL (≈ 0.008 µM)	7.1 µg/mL	–

Second part, led by results:

melting point	EC50 (HIV; [2])	Compound	CD50 (mock-infected MT-4 cells)	EC50 (HIV; [1])
214 to 216 °C	0.008 µg/mL (≈ 0.0199 µM)	CCc1c(Sc2cc(C)cc(C)c2)n(Cc2cc(F)ccc2F)c(=O)[nH]c1=O [Example 67, 1-(2,5-Difluorobenzyl)-5-ethyl-6-(3,5-dimethylphenyl)thio-2,4-pyrimidinedione]	12.40 µg/mL	–
155 to 157 °C	0.004 µg/mL (≈ 0.00896 µM)	CCc1c(C(=O)c2cc(C)cc(C)c2)n(Cc2ccc(OC(F)(F)F)cc2)c(=O)[nH]c1=O [Example 35, 1-(4-Trifluoromethoxybenzyl)-5-ethyl-6-(3,5-dimethylbenzoyl)-2,4-pyrimidinedione]	33.83 µg/mL	–
215 to 217 °C	0.081 µg/mL (≈ 0.231 µM)	CCc1c(Oc2cc(C)cc(C)c2)n(Cc2ccccn2)c(=O)[nH]c1=O [Example 111, 1-(Pyridin-2-ylmethyl)-5-ethyl-6-(3,5-dimethylphenoxy)-2,4-pyrimidinedione]	>100.00 µg/mL	–
204 to 206 °C	0.017 µg/mL (≈ 0.0414 µM)	CCc1c(C(=O)c2cc(C)cc(C)c2)n(Cc2occc2C(=O)OC)c(=O)[nH]c1=O [Example 155, 1-(3-Methoxycarbonyl-2-furanylmethyl)-5-ethyl-6-(3,5-dimethyl-benzoyl)-2,4-pyrimidinedione]	13.45 µg/mL	–
228 to 230 °C	0.079 µg/mL (≈ 0.178 µM)	Cc1cc(C)cc(Oc2c(C(C)C)c(=O)[nH]c(=O)n2Cc2cccc(Br)n2)c1 [Example 128, 1-(2-Bromopyridin-6-ylmethyl)-5-isopropyl-6-(3,5-dimethylphenoxy)-2,4-pyrimidinedione]	48.27 µg/mL	–
248 to 249 °C	0.11 µg/mL (≈ 0.281 µM)	CCc1c(Oc2cc(C)cc(C)c2)n(Cn2nnc3ccccc32)c(=O)[nH]c1=O [Example 141, 1-(1H-benzotriazol-1-ylmethyl)-5-ethyl-6-(3,5-dimethylphenoxy)-2,4-pyrimidinedione]	27.60 µg/mL	–
182 to 183 °C	> 100 µg/mL	Cc1cc(C)cc(Oc2c(C(C)C)c(=O)[nH]c(=O)n2Cc2cc(C(F)(F)F)cc(C(F)(F)F)c2)c1 [Example 64, 1-[3,5-Bis(Trifluoromethyl)benzyl]-5-isopropyl-6-(3,5-dimethylphenoxy)-2,4-pyrimidinedione]	>100.00 µg/mL	–
148 to 150 °C	0.069 µg/mL (≈ 0.159 µM)	CCc1c(Oc2cc(C)cc(C)c2)n(Cc2ccc(OC(F)(F)F)cc2)c(=O)[nH]c1=O [Example 33, 1-(4-Trifluoromethoxybenzyl)-5-ethyl-6-(3,5-dimethyl-phenoxy)-2,4-pyrimidinedione]	>100.00 µg/mL	–
